These results are taken from ChEMBL document CHEMBL1201862, “PubChem BioAssay data set” (2004).

SMILES strings stand for the structures.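 Assay format: 96-well plates, 48-hour exposure. GI50: concentration for 50% inhibition of growth.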 Calls of active or inactive are those of the source. No stated cut-off is given here; in the data, active = GI50 up to about 1.1 µM and inactive = higher.

Test in all cases: NCI-60 cell line screen, 48 h
For assay [1], the system named is OVCAR-4.
In assay [2] the test system is HOP-92.
In assay [3] the test system is SK-MEL-28.
For assay [4], the system named is UO-31.
The test system of assay [5] is NCI-H23.
For assay [6], the system named is UACC-257.
The subject of assay [7] is HCT-15.
In assay [8] the test system is HCC 2998.
Assay [9] deals with SF-295.
Assay [10] relates to HL-60.
The subject of assay [11] is MDA-MB-435.
Assay [12] concerns HOP-62.
For assay [13], the system named is U-251.
In assay [14] the test system is CAKI-1.
For assay [15], the system named is OVCAR-5.
The test system of assay [16] is T47D.
Assay [17] relates to Hs-578T.
In assay [18] the test system is NCI-H522.
For assay [19], the system named is TK-10.
Assay [20] concerns IGROV-1.

`COc1c2c(c3c(c1OC)c(=O)c1ccccc1n3C)OCO2`: the GI50 in assay [1] was 76.2 µM (inactive); in assay [2], > 100 µM (inactive); in assay [3], > 100 µM (inactive); in [4] it was > 100 µM (inactive); in assay [5] it was > 100 µM (inactive); in [6] it was > 100 µM (inactive). For the same compound, the GI50 in assay [7] is more than 100 µM; in [8], > 100 µM (inactive); in [9], > 100 µM (inactive); in [10] it was > 100 µM (inactive); in assay [11] it was > 100 µM (inactive); in assay [12], > 100 µM (inactive). Besides, the GI50 in assay [13], in [14], in assay [15], in assay [16], in assay [17] and in assay [18] was > 100 µM (inactive) each time. Further, the GI50 in assay [19] and in assay [20] was > 100 µM (inactive) in each case.

For `OC1CCCCCCCCCCC1SCCCCl` (stereo not given), the GI50 in assay [1], in assay [2], in assay [3], in assay [4], in [5] and in assay [6] was > 100 µM (inactive) throughout. Further, the GI50 was more than 100 µM in assay [7]; > 100 µM (inactive) in assay [8]; > 100 µM (inactive) in assay [9]; > 100 µM (inactive) in assay [10]; > 100 µM (inactive) in assay [11]; > 100 µM (inactive) in assay [12]. The GI50 in [13], in assay [14], in assay [15], in assay [16], in assay [17] and in assay [18] was > 100 µM (inactive) each time. For the same compound, the GI50 in [19] and in assay [20] was > 100 µM (inactive) each time.

Consider `CN(C)CCOc1ccc2c(c1)C/C(=C/c1ncc([N+](=O)[O-])n1C)C2=O`, for which the GI50 in assay [1] was 1.53 µM (inactive); in assay [2], 1.83 µM (inactive); in assay [3], 17.6 µM (inactive); in [4] it was 1.68 µM (inactive); in assay [5] it was 1 µM (active); in assay [6], 3.79 µM (inactive). Moreover, the GI50 was 0.377 µM in assay [7]; 2.03 µM (inactive) in assay [8]; 3.1 µM (inactive) in assay [9]; 3.25 µM (inactive) in assay [10]; 2.99 µM (inactive) in [11]; 2.1 µM (inactive) in assay [12]. For the same compound, the GI50 in assay [13] was 3.51 µM (inactive); in [14], 2.64 µM (inactive); in assay [15] it was 3.51 µM (inactive); in assay [16], 6.03 µM (inactive); in assay [17], 12.9 µM (inactive); in [18], 0.918 µM (active). For the same compound, the GI50 in [19] was 3.52 µM (inactive); in assay [20] it was 0.233 µM (active).

With `C#CCN(Cc1ccc2nc(OC)c(OC)nc2c1)c1cc(OC)c(OC)c(OC)c1`, the GI50 in assay [1] is 13.4 µM (inactive); in assay [2], 7.43 µM (inactive); in assay [3], 40.9 µM (inactive); in assay [4], 22.1 µM (inactive); in assay [5], 8.36 µM (inactive); in assay [6], 12.3 µM (inactive). In addition, the GI50 in assay [7] was 22.9 µM; in [8], 35.1 µM (inactive); in assay [9], 16.3 µM (inactive); in [10], 12.7 µM (inactive); in [11], 6.59 µM (inactive); in [12], 22.9 µM (inactive). For the same compound, the GI50 is 23.9 µM (inactive) in [13]; 24.2 µM (inactive) in [14]; 40.2 µM (inactive) in [15]; 18.4 µM (inactive) in [16]; 21.2 µM (inactive) in [17]; 9.44 µM (inactive) in [18]. The values for the GI50 in [19] and in assay [20] were 35.5 µM (inactive) and 19.1 µM (inactive), respectively.

Regarding `N=c1oc2ccc(Cl)cc2cc1C(=O)NCc1ccccc1`, the GI50 in [1] is > 100 µM (inactive); in assay [2], 28.9 µM (inactive); in assay [3], > 100 µM (inactive); in [4], > 61.7 µM (inactive); in [5], > 100 µM (inactive); in [6], > 100 µM (inactive). The GI50 was more than 77.8 µM in assay [7]; > 100 µM (inactive) in assay [8]; > 100 µM (inactive) in assay [9]; 11 µM (inactive) in assay [10]; 78.3 µM (inactive) in [11]; > 87.3 µM (inactive) in assay [12]. Moreover, the GI50 in assay [13] is > 86.3 µM (inactive); in assay [14], > 100 µM (inactive); in [15], > 100 µM (inactive); in [16], 39 µM (inactive); in assay [17], 30.5 µM (inactive); in assay [18], 24.7 µM (inactive). For the same compound, the GI50 in assay [19] and in assay [20] was > 100 µM (inactive) each time.

In the case of `O=C1/C(=C/c2cccnc2)C(n2cccc2)c2c(Br)sc(Br)c21` (stereo not given), the GI50 in [1] is 2.07 µM (inactive); in [2] it was 2.01 µM (inactive); in [3], 2.53 µM (inactive); in assay [4] it was 1.78 µM (inactive); in [5], 2.52 µM (inactive); in [6], 1.72 µM (inactive). Besides, the GI50 in [7] is 2.02 µM; in assay [8], 0.916 µM (active); in [9] it was 15.2 µM (inactive); in [10] it was 1.83 µM (inactive); in assay [11] it was 1.73 µM (inactive); in assay [12] it was 2.73 µM (inactive). Further, the GI50 in assay [13] is 1.7 µM (inactive); in assay [14], 2.59 µM (inactive); in assay [15], 15 µM (inactive); in assay [16], 2.82 µM (inactive); in assay [17], 2.94 µM (inactive); in assay [18] it was 6.07 µM (inactive). The GI50 in assay [19] was 1.69 µM (inactive); in assay [20] it was 1.58 µM (inactive).

As to `CC(=O)OCC1OC(n2c(S)nc(-c3ccccc3)c(C#N)c2=O)C(OC(C)=O)C(OC(C)=O)C1OC(C)=O` (stereo not given), the GI50 in assay [1], in assay [2], in [3], in [4], in assay [5] and in assay [6] was > 100 µM (inactive) each time. The GI50 in assay [7] is more than 100 µM; in [8], > 100 µM (inactive); in assay [9] it was > 100 µM (inactive); in assay [10] it was > 100 µM (inactive); in assay [11], > 100 µM (inactive); in assay [12] it was > 100 µM (inactive). Also, the GI50 in [13], in [14], in assay [15], in assay [16], in assay [17] and in [18] was > 100 µM (inactive) throughout. In addition, the GI50 in assay [19] and in assay [20] was > 100 µM (inactive) throughout.

`O=c1c(Cc2ccc(Cl)cc2)nnc2sc(-c3ccc(-c4ccc(Cl)cc4Cl)o3)nn12`: the GI50 is 42.9 µM (inactive) in assay [1]; 38.5 µM (inactive) in assay [2]; > 100 µM (inactive) in assay [3]; 57.8 µM (inactive) in assay [4]; 66.5 µM (inactive) in assay [5]; > 100 µM (inactive) in [6]. For the same compound, the GI50 in [7] was 41.4 µM; in assay [8] it was 49.5 µM (inactive); in assay [9], 83.6 µM (inactive); in assay [10], 23.2 µM (inactive); in assay [11], 71 µM (inactive); in [12], 43.2 µM (inactive). The GI50 is 31 µM (inactive) in assay [13]; 73.5 µM (inactive) in [14]; 94.8 µM (inactive) in assay [15]; 74.5 µM (inactive) in [16]; > 100 µM (inactive) in assay [17]; 52.8 µM (inactive) in assay [18]. For the same compound, the GI50 in [19] and in assay [20] was > 100 µM (inactive) each time.

For the compound `N#CCCCCC12C3C(=O)N(c4ccccc4)C(=O)C3ON1O[C@@H]1C(=O)N(c3ccccc3)C(=O)[C@@H]12` (stereo not given in full), the GI50 in assay [1], in assay [2], in assay [3], in assay [4], in assay [5] and in assay [6] was > 100 µM (inactive) throughout. Also, the GI50 in assay [7] is more than 100 µM; in [8], > 100 µM (inactive); in assay [9] it was > 100 µM (inactive); in [10], > 100 µM (inactive); in assay [11], > 100 µM (inactive); in assay [12], > 100 µM (inactive). Further, the GI50 in assay [13], in [14], in assay [15], in [16], in assay [17] and in assay [18] was > 100 µM (inactive) each time. Moreover, the GI50 in assay [19] and in assay [20] was > 100 µM (inactive) each time.

For the compound `CCOCC(=O)N[C@H]1CCc2cc(OC)c(OC)c(OC)c2-c2ccc(SC)c(=O)cc21`, the GI50 in assay [1] is 3.97 µM (inactive); in [2], < 0.01 µM (active); in [3], > 4.65 µM (inactive); in assay [4], 0.0188 µM (active); in assay [5], < 0.01 µM (active); in assay [6] it was < 0.0169 µM (active). For the same compound, the GI50 in assay [7] was less than 0.01 µM; in [8] it was < 0.01 µM (active); in assay [9] it was < 0.01 µM (active); in [10], 0.0217 µM (active); in [11], < 0.01 µM (active); in assay [12], < 0.01 µM (active). Moreover, the GI50 in assay [13] is < 0.01 µM (active); in assay [14], < 0.01 µM (active); in [15] it was 0.398 µM (active); in assay [16] it was > 100 µM (inactive); in assay [17], < 0.01 µM (active); in [18], < 0.01 µM (active). In addition, the GI50 in assay [19] was 0.406 µM (active); in [20] it was < 0.01 µM (active).
